For data set [1], the target named is T1, human ether-a-go-go related gene (hERG) channel (Homo sapiens, UniProt Q12809).
T1 construct: expressed in transfected cells; host or cells: CHO cells
Briefly: hERG test (whole cell patch clamp, QPatch). The format is cell-based. To be noted: CHO cells expressing hERG, tail peak current. The text has this: For the purpose of assessing risk of an electrocardiogram QT interval prolongation, effects on delayed rectifier K+ current (IKr), which plays an important role in the ventricular repolarization process of the compound of the present invention, was studied using CHO cells expressing human ether-a-go-go related gene (hERG) channel.
A cell was retained at a membrane potential of −80 mV by whole cell patch clamp method using an automated patch clamp system (QPatch; Sophion Bioscience A/S). After application of leak potential at −50 mV, IKr induced by depolarization pulse stimulation at +20 mV for 2 seconds and, further, repolarization pulse stimulation at −50 mV for 2 seconds was recorded.
After the generated current was stabilized, extracellular solution (NaCl: 145 mmol/L, KCl: 4 mmol/L, CaCl2:2 mmol/L MgCl2:1 mmol/L, 1 mmol/L, HEPES (4-(2-hydroxyethyl)-1-piperazineethanesulfonic acid: 10 mmol/L, glucose:10 mmol/L pH=7.4) in which the compound of the present invention have been dissolved at an objective concentration was applied to the cell under the room temperature condition for 10 minutes. From the recording IKr, an absolute value of the tail peak current was measured based on the current value at the resting membrane potential using an analysis software (QPatch assay software; Sophion Bioscience A/S). Further, the % inhibition relative to the tail peak current before application of the compound of the present invention was calculated, and compared with the vehicle-applied group (0.1% dimethyl sulfoxide solution) to assess influence of the compound of the present invention on IKr.

Data set [2] deals with T2, recombinant BACE1 protein (Homo sapiens, UniProt P56817).
T2 construct: recombinant BACE1 protein in a final concentration of 0.04 μg/mL
Nature of the data set: BACE1 biochemical FRET based assay. To be noted: for Selectivity: BACE2 IC50 relative to BACE1 IC50; for pIC50: FRET, pH 5.0, 450 min at room temperature. An excerpt:
This assay is a Fluorescence Resonance Energy Transfer Assay (FRET) based assay. The substrate for this assay is an APP derived 13 amino acids peptide that contains the ‘Swedish’ Lys-Met/Asn-Leu mutation of the amyloid precursor protein (APP) beta-site secretase cleavage site. This substrate also contains two fluorophores: (7-methoxycoumarin-4-yl) acetic acid (Mca) is a fluorescent donor with excitation wavelength at 320 nm and emission at 405 nm and 2,4-dinitrophenol (Dnp) is a proprietary quencher acceptor. […] Upon cleavage by BACE1, the fluorophore Mca is separated from the quenching group Dnp, restoring the full fluorescence yield of the donor. The increase in fluorescence is linearly related to the rate of proteolysis.
Briefly in a 384-well format recombinant BACE1 protein in a final concentration of 0.04 μg/mL was incubated for 450 minutes at room temperature with 10 μm substrate in incubation buffer (final concentrations: 33.3 mM Citrate buffer pH 5.0, 0.033% PEG, 3% DMSO) in the absence or presence of compound. Next the amount of proteolysis was directly measured by fluorescence measurement at T=0′-120′ and T=450′ (excitation at 320 nm and emission at 405 nm). Results were expressed in RFU (Relative Fluorescence Units), as difference between T450 and Tx (Tx is chosen depending on the reaction speed between 0 and 120 minutes).
A best-fit curve was fitted by a minimum sum of squares method to the plot of % Controlmin versus compound concentration. From this an IC50 value (inhibitory concentration causing 50% inhibition of activity) can be obtained.

In data set [3] the target is T3, P-gp (MDR1 expressing LLC-PK1 cells) (Homo sapiens, UniProt P08183).
T3 construct: host or cells: LLC-PK1 (porcine kidney) cells
Nature of the data set: P-gp substrate test. The format is in vitro ADME. To be noted: MDR1 expressing LLC-PK1 cells vs parent LLC-PK1 cells. How it is done: 1. MDR1 expressing LLC-PK1 cells and its parent cells were routinely cultured in Medium A (Medium 199 (Invitrogen) supplemented with 10% FBS (Invitrogen), gentamycin (0.05 mg/mL, Invitrogen) and hygromycin B (100 μg/mL, Invitrogen)) at 37° C. under 5% CO2/95% 02 gasses. For the transport experiments, these cells were seeded on Transwell (Registered trademark) insert (96-well, pore size: 0.4 μm, Coaster) at a density of 1.4×10^4 cells/insert and added Medium B (Medium 199 supplemented with 10% FBS and gentamycin at 0.05 mg/mL) to the feeder tray. These cells were incubated in a CO2 incubator (5% CO2/95% 02 gasses, 37° C.) and replace apical and basolateral culture medium every 48-72 hr after seeding. These cells were used between 4 and 6 days after seeding. 2. The medium in the culture insert seeded with MDR1 expressing cells or parent cells were removed by aspiration and rinsed by HBSS. The apical side (140 μL) or basolateral side (175 μL) was replaced with transport buffer containing reference substrates and the present invention and then an aliquot (50 μL) of transport buffer in the donor side was collected to estimate initial concentration of reference substrate and the present invention. After incubation for designed time at 37° C., an aliquot (50 μL) of transport buffer in the donor and receiver side were collected. Assay was performed by duplicate or triplicate. 3. Reference substrate and the present invention in the aliquot was quantified by LC/MS/MS.
Permeated amounts across monolayers of MDR1 expressing and parent cells were determined, and permeation coefficients (Pe) were calculated using Excel 2003 from the following equitation:
Pe (cm/sec)=Permeated amount (pmol)/area of cell membrane (cm^2)/initial concentration (nM)/incubation time (sec) Where, permeated amount was calculated from permeation concentration (nM, concentration of the receiver side) of the substance after incubation for the defined time (sec) multiplied by volume. (mL) and area of cell membrane was used 0.1433 (cm2). The efflux ratio was calculated using the following equation:
Efflux Ratio=Basolateral-to-Apical Pe/Apical-to-Basolateral Pe
The net flux was calculated using the following equation:
Net flux=Efflux Ratio in MDR1 expressing cells/Efflux Ratio in parent cells

The nature of another data set: Metabolic stability test. To be noted: human liver microsomes 0.5 mg protein/mL, NADPH, 37° C. Format: in vitro ADME. As for the experimental part: Using a commercially available pooled human liver microsomes, a compound of the present invention was reacted for a constant time, a remaining rate was calculated by comparing a reacted sample and an unreacted sample, thereby, a degree of metabolism in liver was assessed.
A reaction was performed (oxidative reaction) at 37° C. for 0 minute or 30 minutes in the presence of 1 mmol/L NADPH in 0.2 mL of a buffer (50 mmol/L Tris-HCl pH 7.4, 150 mmol/L potassium chloride, 10 mmol/L magnesium chloride) containing 0.5 mg protein/mL of human liver microsomes. After the reaction, 50 μL of the reaction solution was added to 100 μL of a methanol/acetonitrile=1/1 (v/v), mixed and centrifuged at 3000 rpm for 15 minutes. The compound of the present invention in the supernatant was quantified by LC/MS/MS or solid phase extraction (SPE)/MS, and a remaining amount of the compound of the present invention after the reaction was calculated, letting a compound amount at 0 minute reaction time to be 100%.
A general note: Microsomes from liver hold many membrane-bound enzymes, among them those of drug oxidation.

These results are taken from US20210261569A1, “FUSED HETEROCYCLIC DERIVATIVES HAVING SELECTIVE BACE1 INHIBITORY ACTIVITY” (Shionogi & Co., Ltd., priority 2018, published 2021).

pIC50: −log10 of the molar value.

T2 sequence (P56817 46-501): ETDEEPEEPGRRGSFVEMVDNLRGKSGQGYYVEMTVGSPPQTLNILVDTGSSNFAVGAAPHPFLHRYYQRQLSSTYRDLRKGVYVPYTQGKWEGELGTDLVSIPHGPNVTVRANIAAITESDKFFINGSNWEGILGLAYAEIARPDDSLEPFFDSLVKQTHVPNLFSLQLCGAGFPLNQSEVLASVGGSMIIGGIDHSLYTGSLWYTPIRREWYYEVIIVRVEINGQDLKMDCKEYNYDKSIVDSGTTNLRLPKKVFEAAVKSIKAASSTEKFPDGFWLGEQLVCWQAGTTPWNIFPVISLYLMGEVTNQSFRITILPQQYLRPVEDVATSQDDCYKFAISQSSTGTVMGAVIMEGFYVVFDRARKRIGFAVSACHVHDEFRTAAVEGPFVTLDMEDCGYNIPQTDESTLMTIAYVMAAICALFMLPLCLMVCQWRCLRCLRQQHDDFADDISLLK
T1 sequence (Q12809 whole entry): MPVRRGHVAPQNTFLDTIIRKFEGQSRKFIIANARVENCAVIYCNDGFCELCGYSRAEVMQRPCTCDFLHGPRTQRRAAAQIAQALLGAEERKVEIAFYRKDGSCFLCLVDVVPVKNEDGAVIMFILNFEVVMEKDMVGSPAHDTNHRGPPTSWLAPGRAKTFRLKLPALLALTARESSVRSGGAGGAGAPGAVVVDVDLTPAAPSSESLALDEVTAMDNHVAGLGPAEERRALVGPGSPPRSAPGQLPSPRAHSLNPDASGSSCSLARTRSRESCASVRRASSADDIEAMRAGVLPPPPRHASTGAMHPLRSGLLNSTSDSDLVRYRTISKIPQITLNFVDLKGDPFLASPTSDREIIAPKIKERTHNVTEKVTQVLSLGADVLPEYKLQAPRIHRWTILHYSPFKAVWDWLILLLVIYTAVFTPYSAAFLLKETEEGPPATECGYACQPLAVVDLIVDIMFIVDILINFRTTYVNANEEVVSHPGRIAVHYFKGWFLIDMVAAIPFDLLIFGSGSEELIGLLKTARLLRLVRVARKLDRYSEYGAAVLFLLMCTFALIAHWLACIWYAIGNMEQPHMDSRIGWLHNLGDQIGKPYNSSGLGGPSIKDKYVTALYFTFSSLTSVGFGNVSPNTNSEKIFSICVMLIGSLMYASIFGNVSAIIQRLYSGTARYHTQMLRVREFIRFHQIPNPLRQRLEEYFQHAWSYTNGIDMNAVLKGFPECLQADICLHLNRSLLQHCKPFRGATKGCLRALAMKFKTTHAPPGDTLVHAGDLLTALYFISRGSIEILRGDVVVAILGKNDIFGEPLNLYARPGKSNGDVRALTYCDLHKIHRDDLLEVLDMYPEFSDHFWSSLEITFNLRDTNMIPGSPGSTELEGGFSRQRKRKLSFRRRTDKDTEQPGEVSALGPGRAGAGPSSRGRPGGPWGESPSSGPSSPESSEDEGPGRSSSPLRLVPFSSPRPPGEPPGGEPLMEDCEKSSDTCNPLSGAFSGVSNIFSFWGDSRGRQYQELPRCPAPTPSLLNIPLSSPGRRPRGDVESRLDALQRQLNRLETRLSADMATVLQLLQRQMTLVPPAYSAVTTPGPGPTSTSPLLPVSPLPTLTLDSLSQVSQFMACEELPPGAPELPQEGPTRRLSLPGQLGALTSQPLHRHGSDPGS
T3 sequence (P08183 whole entry): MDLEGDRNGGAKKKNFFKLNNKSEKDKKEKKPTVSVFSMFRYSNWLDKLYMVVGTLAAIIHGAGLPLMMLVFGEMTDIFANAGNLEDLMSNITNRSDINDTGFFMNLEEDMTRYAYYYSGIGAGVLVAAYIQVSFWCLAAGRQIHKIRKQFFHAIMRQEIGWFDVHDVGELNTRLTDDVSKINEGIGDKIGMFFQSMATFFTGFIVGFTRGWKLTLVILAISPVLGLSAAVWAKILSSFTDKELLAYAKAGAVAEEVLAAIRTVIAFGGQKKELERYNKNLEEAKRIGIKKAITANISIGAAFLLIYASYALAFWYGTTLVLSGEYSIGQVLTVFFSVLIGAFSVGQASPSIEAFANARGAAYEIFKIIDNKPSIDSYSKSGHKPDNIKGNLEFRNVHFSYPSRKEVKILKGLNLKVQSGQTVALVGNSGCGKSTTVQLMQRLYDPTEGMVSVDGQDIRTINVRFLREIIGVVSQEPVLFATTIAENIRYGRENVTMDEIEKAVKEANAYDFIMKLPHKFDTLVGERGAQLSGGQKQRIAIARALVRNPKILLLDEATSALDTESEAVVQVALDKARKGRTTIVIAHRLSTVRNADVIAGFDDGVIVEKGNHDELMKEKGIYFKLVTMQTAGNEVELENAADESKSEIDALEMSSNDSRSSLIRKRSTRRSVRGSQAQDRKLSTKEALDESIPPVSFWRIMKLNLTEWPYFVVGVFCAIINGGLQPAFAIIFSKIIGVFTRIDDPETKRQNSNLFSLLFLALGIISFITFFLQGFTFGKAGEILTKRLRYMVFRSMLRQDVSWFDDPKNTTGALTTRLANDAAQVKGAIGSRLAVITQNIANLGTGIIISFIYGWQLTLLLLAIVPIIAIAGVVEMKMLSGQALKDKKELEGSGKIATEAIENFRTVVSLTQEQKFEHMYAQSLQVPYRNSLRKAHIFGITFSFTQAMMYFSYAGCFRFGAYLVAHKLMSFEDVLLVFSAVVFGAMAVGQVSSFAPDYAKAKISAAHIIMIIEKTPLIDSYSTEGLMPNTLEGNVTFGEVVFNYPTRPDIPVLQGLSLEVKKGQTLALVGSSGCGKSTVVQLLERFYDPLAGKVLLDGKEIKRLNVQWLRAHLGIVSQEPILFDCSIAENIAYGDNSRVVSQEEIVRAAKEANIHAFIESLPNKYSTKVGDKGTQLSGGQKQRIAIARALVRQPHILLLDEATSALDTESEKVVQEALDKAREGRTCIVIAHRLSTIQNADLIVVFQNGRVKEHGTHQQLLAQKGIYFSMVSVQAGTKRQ

The term pIC50 denotes the IC50 on a negative log10 scale, so that one unit is a factor of ten. Regarding `C[C@@H]1OC[C@H]2[C@@H]1OC(N)=N[C@]2(CF)c1cc(NC(=O)c2cnc(OCF)cn2)ccc1F` [Compound I-082], the “hERG inhibition (%) at 3 μM” value in data set [1] came out at 6.7%. Further, in data set [2], the Selectivity worked out at 28 and the pIC50 is 7.96. Also, the “P-gp ER ratio” value in data set [3] came to 3.6. In addition, the “Remaining rate (%) at 30 min” value in “Metabolic stability test” is 92%.

For `NC1=N[C@](CF)(c2cc(NC(=O)c3cnc(OCF)cn3)ccc2F)[C@H]2[C@H](CC(F)F)OC[C@H]2O1` [Compound I-116], in data set [1], the “hERG inhibition (%) at 3 μM” value is 33.9%. In addition, in data set [2], the Selectivity is listed as 31 and the pIC50 is 7.89. Further, the “P-gp ER ratio” value in data set [3] was found to be 5.2. In addition, in “Metabolic stability test”, the “Remaining rate (%) at 30 min” value was found to be 92%.
